# Test results as given in publication PMC7557599, “Cyclic Peptide-Gadolinium Nanoparticles for Enhanced Intracellular Delivery” (Pharmaceutics, 2020).
# Tested on: CCRF-CEM cells
# Assay: Time-dependent antiproliferative activity assay (MTS)
# Type: cell-based, human
# Conditions: drug 5 µM, [(WR)5C]-GdNPs 50 µM, 72 h incubation, MTS 490 nm, triplicate (n = 3)
# Protocol: Antiproliferative activities of several anticancer drugs, including epirubicin, cisplatin, gemcitabine, etoposide, carboplatin and camptothecin, were evaluated in the presence and absence of [(WR)5C]-GdNPs in CCRF-CEM cells. Different time periods, including 24, 48 and 72 h, were selected. The CellTiter 96 aqueous one solution cell proliferation assay kit (Promega, Madison, WI, USA) was used for the assay. The CCRF-CEM cells (5 × 10^4) were seeded in 100 µL of the media. The cells then placed in each well of the 96-well culture plate. The cells were incubated with drugs alone and [(WR)5C]-GdNPs-loaded drugs at a similar condition in triplicates. To confirm the results, DMSO (1% in water) was used as a control. To entrap the drug, the physical mixing method was used. A calculated volume of the drug solution was mixed with the desired volume of an aqueous solution of [(WR)5C]-GdNPs physically to obtain a final concentration of the drug (5 μM) and the [(WR)5C]-GdNPs (50 μM). The mixture was vortexed until the solution became homogeneous and clear. The mixture was incubated for 30 min at room temperature before adding to the cells to obtain optimized performance. The incubation of cells with their treatments was carried out at 37 °C for 24–72 h. The cell viability assay was performed by adding 20 μL of CellTiter 96 aqueous solution. The cells were incubated for another hour with the MTS reagent. The formazan absorbance was measured at 490 nm by a microplate reader. The percentage of cell survival was calculated as previously reported.
# Several anticancer drugs such as epirubicin, cisplatin, gemcitabine, etoposide, carboplatin and camptothecin were evaluated for their antiproliferative activities at different time periods, including 24, 48 and 72 h. […] The improved antiproliferative activity of cisplatin and carboplatin could be due to the chelating of the thiol group of cysteine with these anticancer agents or binding of metals to peptides as GdNPs. […]
row,Compound,enhancement of antiproliferative potency in the presence of [(WR)5C]-GdNPs
1,COc1cccc2c1C(=O)c1c(O)c3c(c(O)c1C2=O)C[C@@](O)(C(=O)CO)C[C@@H]3O[C@H]1C[C@H](N)[C@@H](O)[C@H](C)O1 [epirubicin],6%
2,CC[C@@]1(O)C(=O)OCc2c1cc1n(c2=O)Cc2cc3ccccc3nc2-1 [camptothecin],8%
3,COc1cc([C@@H]2c3cc4c(cc3[C@@H](O[C@@H]3O[C@@H]5CO[C@@H](C)O[C@H]5[C@H](O)[C@H]3O)[C@H]3COC(=O)[C@H]23)OCO4)cc(OC)c1O [etoposide],2%
